Structures are written as SMILES. Square brackets hold non-standard residues; d marks the D form. Peptide text beside a SMILES is read from it. * marks the point of attachment. Hydrocinnamoyl = O=C(CCc1ccccc1)*; pGlu = O=C1CC[C@@H](C(=O)O)N1; Bz = O=C(c1ccccc1)*

Sequence of Angiotensin-converting enzyme (P12821 whole entry): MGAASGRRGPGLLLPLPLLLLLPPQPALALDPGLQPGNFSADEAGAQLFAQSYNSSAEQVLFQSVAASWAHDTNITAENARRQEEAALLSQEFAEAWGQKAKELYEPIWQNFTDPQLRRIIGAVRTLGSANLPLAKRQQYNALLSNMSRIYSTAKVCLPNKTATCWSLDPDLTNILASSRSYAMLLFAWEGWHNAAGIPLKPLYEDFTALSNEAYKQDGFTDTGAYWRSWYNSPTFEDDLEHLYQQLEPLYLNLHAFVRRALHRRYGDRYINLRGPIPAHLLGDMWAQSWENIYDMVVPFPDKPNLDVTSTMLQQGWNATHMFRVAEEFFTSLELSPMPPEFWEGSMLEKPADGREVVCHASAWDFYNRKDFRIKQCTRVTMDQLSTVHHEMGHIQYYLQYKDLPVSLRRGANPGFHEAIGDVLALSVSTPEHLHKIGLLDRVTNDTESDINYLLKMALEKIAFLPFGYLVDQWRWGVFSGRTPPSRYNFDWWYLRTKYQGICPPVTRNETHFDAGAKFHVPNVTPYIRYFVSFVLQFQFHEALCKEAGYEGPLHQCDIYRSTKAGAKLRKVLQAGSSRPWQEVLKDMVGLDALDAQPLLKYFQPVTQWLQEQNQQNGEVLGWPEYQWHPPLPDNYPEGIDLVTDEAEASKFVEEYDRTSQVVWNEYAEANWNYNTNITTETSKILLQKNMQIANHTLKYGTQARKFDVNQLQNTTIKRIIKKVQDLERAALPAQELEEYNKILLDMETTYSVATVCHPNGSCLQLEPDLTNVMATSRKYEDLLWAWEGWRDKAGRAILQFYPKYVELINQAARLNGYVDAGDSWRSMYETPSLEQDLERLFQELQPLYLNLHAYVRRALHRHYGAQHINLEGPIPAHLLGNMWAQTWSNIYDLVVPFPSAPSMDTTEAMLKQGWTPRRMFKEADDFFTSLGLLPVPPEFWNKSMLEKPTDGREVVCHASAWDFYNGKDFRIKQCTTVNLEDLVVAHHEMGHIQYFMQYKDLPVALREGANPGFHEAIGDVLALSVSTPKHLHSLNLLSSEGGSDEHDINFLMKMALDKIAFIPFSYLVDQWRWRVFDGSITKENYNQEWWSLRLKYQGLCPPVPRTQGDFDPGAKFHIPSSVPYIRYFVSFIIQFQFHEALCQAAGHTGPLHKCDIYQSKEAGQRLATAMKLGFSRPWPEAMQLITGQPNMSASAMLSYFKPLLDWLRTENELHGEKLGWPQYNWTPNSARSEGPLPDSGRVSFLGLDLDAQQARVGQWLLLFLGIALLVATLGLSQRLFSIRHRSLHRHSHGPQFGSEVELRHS

The assay concerns the target Angiotensin-converting enzyme (Homo sapiens, UniProt P12821). Description: In vitro inhibitory activity against Angiotensin I converting enzyme. The note with it: read-out: I50.
As for `C[C@H](N[C@@H](C[C@H](Cc1ccccc1)NC(=O)c1ccccc1)C(=O)O)C(=O)N1CCC[C@H]1C(=O)O`, the IC50 turned out to be 0.003 µM.

On to `C[C@H](N[C@H](C[C@H](Cc1ccccc1)NC(=O)c1ccccc1)C(=O)O)C(=O)N1CCC[C@H]1C(=O)O`, for which the IC50 amounted to 0.0048 µM.

For the compound `C[C@H](NC(CNC(=O)c1ccccc1)C(=O)O)C(=O)N1CCC[C@H]1C(=O)O` (some centres undefined), the IC50 was found to be 0.04 µM.

With `C[C@H](NC(=O)CCc1ccccc1)C(=O)N1CCC[C@H]1C(=O)O` (Hydrocinnamoyl-Ala-Pro-OH), the IC50 was determined as 330 µM.

With `C[C@H](NC(=O)[C@H](Cc1ccccc1)NC(=O)[C@H](CCCCN)NC(=O)[C@@H]1CCC(=O)N1)C(=O)N1CCC[C@H]1C(=O)O` ([pGlu]KFAP-OH), the IC50 turned out to be 5 µM.

Take `C[C@H](NC(=O)[C@H](Cc1ccccc1)NC(=O)c1ccccc1)C(=O)N1CCC[C@H]1C(=O)O` (Bz-Phe-Ala-Pro-OH): the IC50 worked out at 2.7 µM.

Regarding `O=C(CCC(=O)N1CCCC1C(=O)O)CCc1ccccc1` (centres undefined), the IC50 worked out at 2600 µM.

Regarding `C[C@H](N[C@H](C(=O)O)[C@H](Cc1ccccc1)NC(=O)c1ccccc1)C(=O)N1CCC[C@H]1C(=O)O`, the IC50 is 0.0077 µM.

Take `CC(=O)N1CCCC1C(NC(C)C(=O)N1CCCC1C(=O)O)C(=O)O` (centres undefined): the IC50 amounted to 0.0094 µM.

Take `C[C@H](N[C@@H](CNC(=O)c1ccccc1)C(=O)O)C(=O)N1CCC[C@H]1C(=O)O`: the IC50 is 0.017 µM.

On to `CC(NC(C(=O)O)C1CCCN1C(=O)c1ccccc1)C(=O)N1CCCC1C(=O)O` (centres undefined), for which the IC50 was found to be 0.0029 µM.

Consider `C[C@H](N[C@H](C(=O)O)[C@@H]1CCCN1)C(=O)N1CCC[C@H]1C(=O)O`, for which the IC50 was found to be 0.7 µM.

For the compound `C[C@H](N[C@@H](C(=O)O)[C@H](Cc1ccccc1)NC(=O)c1ccccc1)C(=O)N1CCC[C@H]1C(=O)O`, the IC50 came to 1.4 µM.

For the compound `C[C@H](NC(=O)[C@@H](N)Cc1ccccc1)C(=O)N1CCC[C@H]1C(=O)O` (H-Phe-Ala-Pro-OH), the IC50 worked out at 1.4 µM.

The record behind these values is ChEMBL document CHEMBL1122972, “Angiotensin-converting enzyme inhibitors: synthesis and biological activity of acyl tripeptide analogues of enalapril” (J Med Chem, 1985).
